Results reported in patent US6407064B2, “Aminoalcohol derivative and medicament comprising the same” (Seikagaku Corporation, priority 1999, dated 2002).

Tested on: ganglioside GM3, mouse B16 melanoma cells
Assay: Synthesized amount of ganglioside GM3 (HPTLC densitometry)
Type: cell-based
Conditions: relative value, control regarded as 100, test compound 25 μM, 24 hours
Protocol: A liquid where the cells of mouse B16 melanoma were suspended was prepared with Dulbecco modified Eagle's medium containing 10% bovine fetal serum, inoculated into a culture flask (175 cm^2) in an amount of 0.8×10^7 cells/20 ml, and cultured in 5% CO2 incubator at 37° C. The treatment with a test compound (25 μM) was started through the exchange of three fourths of the medium 24 hours after the culture was started. Twenty-four hours after the treatment with the test compound was started, the culture mixture was treated with PBS containing 0.02% EDTA and PBS containing 0.25% trypsin successively to recover the cells.
Then, a mixed solvent of chloroform:methanol=2:1 (4 ml) was added to the cell pellet and, after the subjection to an ultrasonication for 30 minutes, the cell pellet solution was allowed to stand at room temperature for a night and the supernatant was recovered. Furthermore, a mixed solvent of chloroform:methanol=1:1 (4 ml) was added to the residual pellet after the recovery of the supernatant, and a similar operation was carried out. The resulting supernatant was combined with the first supernatant and the whole was evaporated to dryness under a nitrogen stream. To the total lipid fraction was added a 0.1 N methanolic sodium hydroxide solution (2.0 ml) and the mixture was allowed to stand at 40° C. for 2 hours. Thereafter, 1 N hydrochloric acid (0.2 ml) was added thereto and the mixture was allowed to stand for 1.5 hours.
Then, the mixture was washed with n-hexane (2 ml×2) and, after the lower layer thus washed was evaporated to dryness under a nitrogen stream, the residue was desalinated by gel filtration chromatography (Sephadex LH-20 (manufactured by Amersham Pharmacia Biotech), diameter of 10 mm, height of 120 mm) using chloroform:methanol=2:1 as the eluting solvent. […] After orcinol-sulfuric acid reagent had been sprayed on the plate, it was heated at 110° C. for 5 minutes and colored spot of ganglioside GM3 was quantitatively determined by means of densitometer (a measuring wavelength of 505 nm). […]

CCCCCCCCCC(=O)N[C@@H](CN1CCOCC1)[C@@H](O)c1ccccc1 [L-PDMP, (1S,2S)-1-phenyl-2-decanoylamino-3-morpholino-1-propanol, reference compound]
Glycolipid content (Test Example 3): 100.7
